Legend:
[1] = Study 1: single-escalating oral dose pharmacokinetics, incl. food effect (Phase 1); assay type: in vivo, human; conditions: 50 to 800 mg, fed state
Method: Study 1 was the first-in-human study that investigated the safety, tolerability, and PK of single-escalating doses of Compound 1, given orally, to healthy adult subjects. […] The data from this study were used for the selection of doses for Study 2.
In Study 1, Compound 1 was administered to healthy adult subjects as a single PO dose of 2, 10, 50, 150, 400, or 800 mg in the fed state and 150 mg in the fasted state. Absorption occurred moderately late, achieving peak Cmax between 4 to 6 hours following dosing in the fed state.
When Compound 1 was given in the fed state, median time to reach maximum plasma concentration (Tmax) occurred between 4 and 6 hours.
As part of this single-dose escalation study, a food effect PK investigation was performed to examine Compound 1 exposures in both the fed and fasted states at the 150-mg dose level. A total of 6 subjects were administered 150 mg Compound 1 in each of these 2 dosing groups. Of these 6 subjects, 4 subjects received Compound 1 at the same dose in both fed and fasted states. […] Table 6 provides a summary of the PK parameters at the 150-mg dose level under both fed and fasted state conditions.
PK parameters AUC0-∞ and Cmax were analyzed separately for dose proportionality for Compound 1 from 50 to 800 mg when administered in the fed state. […]

[2] = Study 2 Part A: multiple-dose, dose-escalation pharmacokinetics (Phase 1, 14 days); assay type: in vivo, human; conditions: after 2 weeks of dosing
Method: The 2-part multiple-dose study, Study 2, determined the safety and tolerability of repeated daily doses of Compound 1 and investigated the effects on biomarkers of relevance for the treatment of alcohol dependence.
PK were also evaluated in the multiple-dose, dose-escalation study, Study 2. In Part A of the study, subjects were divided into 3 cohorts and received 50, 150, or 200 mg Compound 1 or placebo for 14 consecutive days (at least 6 subjects received Compound 1 and 2 subjects received placebo in each cohort). […] All dosing occurred in the fed state. An assessment of diurnal cortisol levels, plus when under conditions of glucose clamp, were also carried out both prior to and during the dosing period.
Consistent with the single-dose study (Study 1), concentrations appeared to decline in a bi-exponential manner, characterized by a rapid decrease within the first 24 hours. […] The Tmax appeared to be consistent across doses. Overall half-lives, weight normalized CL/F and V/F were consistent for 150 and 200 mg. However, the values for these latter 2 parameters were almost doubled at the 50-mg dose level. Variability (CV %) for apparent clearance and volume of distribution were large and not reduced with weight-normalization.
Table 8 presents the results of the dose proportionality assessment for the AUC0-24 and Cmax over the tested dose range.

[3] = target: T1, CRF1 receptor (Homo sapiens, UniProt P34998); assay: Phase 2 study in adults with classic CAH: hormone response (ACTH, 17-OHP, androstenedione); assay type: in vivo
T1 construct: from tissue; host or cells: in vivo, human patients (anterior pituitary corticotrophs)
T1 sequence (P34998 24-415): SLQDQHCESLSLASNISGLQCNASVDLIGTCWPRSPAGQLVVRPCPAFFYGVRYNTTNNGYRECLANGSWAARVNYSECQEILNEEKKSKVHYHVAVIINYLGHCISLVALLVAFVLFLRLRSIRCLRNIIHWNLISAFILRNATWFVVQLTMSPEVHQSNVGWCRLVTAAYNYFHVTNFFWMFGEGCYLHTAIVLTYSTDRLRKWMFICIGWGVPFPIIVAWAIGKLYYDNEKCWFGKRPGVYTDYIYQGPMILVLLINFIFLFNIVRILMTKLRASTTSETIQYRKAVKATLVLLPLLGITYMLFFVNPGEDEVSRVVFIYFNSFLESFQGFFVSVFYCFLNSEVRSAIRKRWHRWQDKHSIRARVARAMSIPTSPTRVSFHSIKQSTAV
Source text: Cohort A of the Phase 2 Study includes a 6-week, multiple-dose, dose escalation study of Compound 1 for the treatment of adults with classic CAH. After screening, eligible patients will be enrolled into a 6-week treatment period followed by a 4-week washout/safety follow-up period.
This cohort will be conducted in approximately 9 patients, who will receive Compound 1 daily for up to 6 weeks. Compound 1 will be administered as an oral daily dose. Patients will undergo titration of Compound 1 through three escalating dosage strengths at 2-week intervals. […]
Patients in Cohort B will receive study drug at 200 mg BID, with a dose in the morning and a dose in the evening, either with a meal or consumption of a standardized snack. For Cohorts C and D, the dose level and the frequency and timing of dosing will be determined based on interim data from the previous cohorts. […]
• 1. […] To assess the efficacy of Compound 1 in subjects with classic CAH as measured by percent and absolute change in 17-OHP compared to baseline.
• 3. To explore the dose(s) of Compound 1 that cause pharmacodynamics changes in plasma concentrations of ACTH, androstenedione, and testosterone, as measured by the absolute and percent change from baseline by dose. • 4. […]

- AUC0-∞ increase for every doubling of dose, relative to dose proportionality [1]: 1.74 times
- Cmax dose proportionality, in words [1]: more than dose proportional
- Blood concentrations relative to steady state [2]: close to steady-state levels
- subjects with 17-OHP within the guideline range after treatment ([3]; guideline range (1200 ng/dL)): 50%
- morning rise in A4 ([3]; patients with CAH): attenuates
SMILES: CCC(CC)c1cc(C)nc2c(-c3sc(N4CCOCC4)nc3Cl)c(C)nn12 [Compound 1, 3-(4-Chloro-2-(morpholin-4-yl)thiazol-5-yl)-7-(1-ethylpropyl)-2,5-dimethylpyrazolo(1,5-a)pyrimidine]

Reference: patent US20210361664A1, “CORTICOTROPIN RELEASING FACTOR RECEPTOR ANTAGONISTS” (Spruce Biosciences, Inc., priority 2017, published 2021)
